Reference: ChEMBL document CHEMBL1123870, “Limited nerve impulse blockade by "leashed" local anesthetics” (1987)

test: Tonic inhibition of compound action potential by 50% was determined in the absence of avidin in desheathed frog sciatic nerves; type: functional; conditions: Amphibia, Sciatic nerve; read-out: ED50 (the source's name)

EC50 [µM] | SMILES
1500 | CCCCN(C(=O)CCCC[C@H]1SCC2NC(=O)NC21)c1ccc(C(=O)OCCN(C)C)cc1 (some centres not stated)
3200 | CCN(CC)CCOC(=O)c1ccc(NC(=O)OCCOCCOCCO)cc1
4200 | CCN(CC)CCOC(=O)c1ccc(NC(=O)CCCC[C@H]2SCC3NC(=O)NC32)cc1 (some centres not stated)
6600 | CCN(CC)CCOC(=O)c1ccc(NC(=O)OCCOCCOCCOCCOCCOCCO)cc1
2400 | CCN(CC)CCOC(=O)c1ccc(NC(=O)OCCOCCOCCOC(=O)CCCC[C@H]2SCC3NC(=O)NC32)cc1 (some centres not stated)
1300 | CCN(CC)CCOC(=O)c1ccc(N)cc1 [PROCAINE]
12 | CCCCNc1ccc(C(=O)OCCN(C)C)cc1 [TETRACAINE]
